PubChem BioAssay AID2060361 (Molecular Pharmacology Branch, DTP, NCI, 2025)

System: 463943-066-T-J2-PDC tumor spheroids with HUVEC/MSC, viability
Assay: Anticancer human tumor 463943-066-T-J2-PDC patient-derived colon adenocarcinoma cell line growth inhibition [TAK]
Conditions: for IC50: curve of first compound; for viability, T/C: stronger effect = lower value
From the text: Combinatorial screen of targeted agents with TAK-243 and ipatasertib in multi-cell type tumor spheroids
A high-throughput screen of multi-cell type tumor spheroids was designed to identify active combinations of targeted small molecules and TAK-243 or ipatasertib. Complex spheroids include a stromal component modeled by human endothelial cells (HUVEC) and fibroblasts modeled by human mesenchymal stem cells (MSCs). The concentration ranges selected for each drug and investigational agent were based upon clinically achievable concentrations if the clinical Cmax of the agent was known.
Compounds. The drugs and investigational agents: TAK-243 (785004), ipatasertib (767898), everolimus (733504), selumetinib (741078), bortezomib (756655), trametinib (758246), ixazomib (758254), vemurafenib (761431), dabrafenib (764134), sapanisertib (764658), alpelisib (765974), and copanlisib (816437), were obtained from the National Cancer Institute (NCI) Developmental Therapeutics Program Chemical Repository. The FDA-approved anticancer drug set is available from the NCI Developmental Therapeutics Program. […] The stock solutions were prepared in dimethyl sulfoxide (DMSO, Sigma-Aldrich, St. Louis, MO, cat. D2650) at 800-fold the tested concentration and stored at -70 degrees C prior to their use. All drugs and investigational agents were tested over a range starting from a high concentration at or near the clinical Cmax and decreasing in half-log increments. If the clinical Cmax for an agent had not been determined, the highest concentration tested was 10 microM.
NCI60 Cell Culture. NCI60 cell lines were obtained from the NCI Developmental Therapeutics Program Tumor Repository. For each lot of cells, the Repository performed Applied Biosystems AmpFLSTR Identifiler testing with PCR amplification to confirm consistency with the published Identifier STR profile for each cell line. Cells were kept in continuous culture for no more than 20 passages. The optimal seeding densities for each of the cell lines at each time point assessed were determined prior to performing the concentration response studies. Briefly, the NCI60 human tumor lines were grown as monolayers in RPMI 1640 medium supplemented with 10% FBS and 2 mmol/L L-glutamine.
An additional 2 lines were from the NCI60 cell line panel including melanomas, MALME-3M and SK-MEL-2. Pooled donor human umbilical vein endothelial cells (HUVEC, Lonza, cat. CC-2519) and human mesenchymal stem cells (hMSC, Lonza, cat. PT-2501) were purchased from Lonza (Walkersville, MD).
PDMR cell lines were grown in complete medium (DC medium): Dulbecco's modified Eagle's medium (DMEM)/F12 supplemented with 5% fetal bovine serum (FBS), 2 mM L-glutamine, 100 U/mL penicillin and 100 µg/ml streptomycin, 0.4 µg/ml hydrocortisone, 10 ng/ml epidermal growth factor (EGF) recombinant human protein, 24 µg/mL adenine, and 0.1 mg/mL primocin. During culture from frozen stock vials, PDMR cells were cultured in the same medium containing 10 µM Y-27632 (see Table 3). The PDCs were cultured in complete DMEM/F12 media without 10 microM Y-27632 dihydrochloride for at least two passages prior to the screen. The pooled donor HUVEC and hMSC were cultured in endothelial cell growth medium 2 (PromoCell, Heidelberg, Germany, cat. C-22011) and mesenchymal stem cell growth medium 2 (PromoCell, cat. C-28009), respectively. For all experiments, HUVEC and hMSC were used at passages </=5.
For the pre-screen, cell seeding densities were determined from a titration spanning the range from 5,000 to 313 cells per well. The mct-spheroids including 60% malignant cells, 25% HUVEC and 15% MSC dispensed as a mixture into U-bottom Ultra-Low Attachment 384-well plates (Corning, NY)
High-throughput Drug Combination Screening.
Prior to their inoculation into 384-well plates, malignant cells, HUVEC, and hMSC were removed from T flasks using TrypLE express (Thermo Fisher Scientific, cat. 12605036) and harvested by centrifugation for 5 min at 233 x g. […]
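Also: spheroids exposed to drugs for seven days.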
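For viability, T/C in this document: 100% = DMSO vehicle control wells.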

For `CC(C)n1nc(-c2ccc3oc(N)nc3c2)c2c(N)ncnc21` + CC(C)NCC(C(=O)N1CCN(c2ncnc3c2C(C)CC3O)CC1)c1ccc(Cl)cc1, the IC50 (second compound 0.3 µM) was greater than 0.1 µM, the IC50 (second compound 0.949 µM) was greater than 0.1 µM and the IC50 (second compound 3 µM) was greater than 0.1 µM. The IC50 (second compound 9.49 µM) was greater than 0.1 µM, the IC50 (second compound 30 µM) was greater than 0.1 µM and the viability, T/C (second compound 0.3 µM, first compound 0.000316 µM) was 112%. It also gave a viability, T/C (second compound 0.3 µM, first compound 0.001 µM) of 102%, a viability, T/C (second compound 0.3 µM, first compound 0.00316 µM) of 105% and a viability, T/C (second compound 0.3 µM, first compound 0.01 µM) of 95.2%. It also gave a viability, T/C (second compound 0.3 µM, first compound 0.0316 µM) of 79.6%, a viability, T/C (second compound 0.3 µM, first compound 0.1 µM) of 74.1% and a viability, T/C (second compound 0.949 µM, first compound 0.000316 µM) of 100%. The viability, T/C (second compound 0.949 µM, first compound 0.001 µM) was 97.2%, the viability, T/C (second compound 0.949 µM, first compound 0.00316 µM) was 81.8% and the viability, T/C (second compound 0.949 µM, first compound 0.01 µM) was 78.6%. For the same compound, the viability, T/C (second compound 0.949 µM, first compound 0.0316 µM) was 82.7%, the viability, T/C (second compound 0.949 µM, first compound 0.1 µM) was 78.5% and the viability, T/C (second compound 3 µM, first compound 0.000316 µM) was 95.2%. For the same compound, the viability, T/C (second compound 3 µM, first compound 0.001 µM) was 106%, the viability, T/C (second compound 3 µM, first compound 0.00316 µM) was 93.4% and the viability, T/C (second compound 3 µM, first compound 0.01 µM) was 89.8%. For the same compound, the viability, T/C (second compound 3 µM, first compound 0.0316 µM) was 85.3%, the viability, T/C (second compound 3 µM, first compound 0.1 µM) was 78.2% and the viability, T/C (second compound 9.49 µM, first compound 0.000316 µM) was 103%. It also gave a viability, T/C (second compound 9.49 µM, first compound 0.001 µM) of 91.6%, a viability, T/C (second compound 9.49 µM, first compound 0.00316 µM) of 91.4% and a viability, T/C (second compound 9.49 µM, first compound 0.01 µM) of 88.3%. It also gave a viability, T/C (second compound 9.49 µM, first compound 0.0316 µM) of 82.6%, a viability, T/C (second compound 9.49 µM, first compound 0.1 µM) of 74.1% and a viability, T/C (second compound 30 µM, first compound 0.000316 µM) of 86.1%. For the same compound, the viability, T/C (second compound 30 µM, first compound 0.001 µM) was 106%, the viability, T/C (second compound 30 µM, first compound 0.00316 µM) was 83.2% and the viability, T/C (second compound 30 µM, first compound 0.01 µM) was 89%. The viability, T/C (second compound 30 µM, first compound 0.0316 µM) was 82% and the viability, T/C (second compound 30 µM, first compound 0.1 µM) was 74.6%.

In the case of `CCCS(=O)(=O)Nc1ccc(F)c(C(=O)c2c[nH]c3ncc(-c4ccc(Cl)cc4)cc23)c1F` + CC(C)NCC(C(=O)N1CCN(c2ncnc3c2C(C)CC3O)CC1)c1ccc(Cl)cc1, the IC50 (second compound 0.3 µM) is reported as greater than 100 µM, the IC50 (second compound 0.949 µM) is reported as greater than 100 µM and the IC50 (second compound 3 µM) is reported as greater than 100 µM. For the same compound, the IC50 (second compound 9.49 µM) was greater than 100 µM, the IC50 (second compound 30 µM) was greater than 100 µM and the viability, T/C (second compound 0.3 µM, first compound 0.316 µM) was 105%. It also gave a viability, T/C (second compound 0.3 µM, first compound 1 µM) of 102%, a viability, T/C (second compound 0.3 µM, first compound 3.16 µM) of 104% and a viability, T/C (second compound 0.3 µM, first compound 10 µM) of 99.7%. It also gave a viability, T/C (second compound 0.3 µM, first compound 31.6 µM) of 125%, a viability, T/C (second compound 0.3 µM, first compound 100 µM) of 105% and a viability, T/C (second compound 0.949 µM, first compound 0.316 µM) of 108%. The viability, T/C (second compound 0.949 µM, first compound 1 µM) was 104%, the viability, T/C (second compound 0.949 µM, first compound 3.16 µM) was 103% and the viability, T/C (second compound 0.949 µM, first compound 10 µM) was 106%. For the same compound, the viability, T/C (second compound 0.949 µM, first compound 31.6 µM) was 64.2%, the viability, T/C (second compound 0.949 µM, first compound 100 µM) was 110% and the viability, T/C (second compound 3 µM, first compound 0.316 µM) was 103%. It also gave a viability, T/C (second compound 3 µM, first compound 1 µM) of 109%, a viability, T/C (second compound 3 µM, first compound 3.16 µM) of 92.7% and a viability, T/C (second compound 3 µM, first compound 10 µM) of 92%. For the same compound, the viability, T/C (second compound 3 µM, first compound 31.6 µM) was 88.4%, the viability, T/C (second compound 3 µM, first compound 100 µM) was 104% and the viability, T/C (second compound 9.49 µM, first compound 0.316 µM) was 102%. For the same compound, the viability, T/C (second compound 9.49 µM, first compound 1 µM) was 109%, the viability, T/C (second compound 9.49 µM, first compound 3.16 µM) was 98.2% and the viability, T/C (second compound 9.49 µM, first compound 10 µM) was 89.6%. For the same compound, the viability, T/C (second compound 9.49 µM, first compound 31.6 µM) was 68.6%, the viability, T/C (second compound 9.49 µM, first compound 100 µM) was 109% and the viability, T/C (second compound 30 µM, first compound 0.316 µM) was 87.5%. For the same compound, the viability, T/C (second compound 30 µM, first compound 1 µM) was 94.7%, the viability, T/C (second compound 30 µM, first compound 3.16 µM) was 91.9% and the viability, T/C (second compound 30 µM, first compound 10 µM) was 88.9%. For the same compound, the viability, T/C (second compound 30 µM, first compound 31.6 µM) was 25.6% and the viability, T/C (second compound 30 µM, first compound 100 µM) was 95.8%.
